The text below walks through data of patent US5753648A, “Tricyclic benzazepine vasopressin antagonists” (American Cyanamid Company, priority 1996, dated 1998).

Assay [1] deals with T1, Rat Kidney Medullary V2 Receptors (Rattus norvegicus, UniProt Q00788).
T1 construct: Medullary tissues from rat kidneys are dissected out; from tissue; host or cells: rat kidney medulla membranes
The assay can be described thus: biochemical. The format is binding.

Assay [2] has as its target T2, Human V2 Vasopressin Receptor (Homo sapiens, UniProt P30518).
T2 construct: expressed in transfected cells; host or cells: mouse fibroblast cell line LV-2
The assay can be described thus: Binding to Membranes of Mouse Fibroblast Cell Line (LV-2) Transfected with the cDNA Expressing the Human V2 Vasopressin Receptor. The note with it: ** LV-2 cells transfected with human V2 receptor cDNA; read-out: V2 IC50 (**human V2 receptor). The procedure:
Binding to Membranes of Mouse Fibroblast Cell Line (LV-2) Transfected with the cDNA Expressing the Human V2 Vasopressin Receptor Membrane Preparation
Flasks of 175 ml capacity, containing attached cells grown to confluence, are cleared of culture medium by aspiration. The flasks containing the attached cells are rinsed with 2×5 ml of phosphate buffered saline (PBS) and the liquid aspirated off each time. Finally, 5 ml of an enzyme free dissociation Hank's based solution (Specialty Media, Inc., Lafayette, N.J.) is added and the flasks are left undisturbed for 2 min. The content of all flasks is poured into a centrifuge tube and the cells pelleted at 300×g for 15 min. The Hank's based solution is aspirated off and the cells homogenized with a polytron at setting #6 for 10 sec in 10.0 mM Tris.HCl buffer, pH 7.4 containing 0.25M sucrose and 1.0 mM EDTA. The homogenate is centrifuged at 1500×g for 10 min to remove ghost membranes. The supernatant fluid is centrifuged at 100,000×g for 60 min to pellet the receptor protein. Upon completion, the pellet is resuspended in a small volume of 50.0 mM Tris.HCl buffer, pH 7.4. The protein content is determined by the Lowry method and the receptor membranes are suspended in 50.0 mM Tris.HCl buffer containing 0.1 mM phenylmethylsulfonylfluoride (PMSF) and 0.2% bovine serum albumin (BSA) to give 2.5 mg receptor protein per ml of suspension.
For binding experiments, the following is added in μl volume to wells of a 96 well format of a microtiter plate: 100.0 μl of 100.0 mM Tris.HCl buffer containing 0.2% heat inactivated BSA, 10.0 mM MgCl2 and a mixture of protease inhibitors: leupeptin, 1.0 mg %; aprotinin, 1.0 mg %; 1,10-phenanthroline, 2.0 mg %; trypsin inhibitor, 10.0 mg % and 0.1 mM PMSF, 20.0 μl of [^3 H] Arginine^8, vasopressin (S.A. 75.0 Ci/mmole) at 0.8 nM and the reaction initiated by the addition of 80.0 μl of tissue membranes (200.0 μg tissue protein). The plates are left undisturbed on the bench top for 120 min to reach equilibrium. Non specific binding is assessed in the presence of 1.0 μm of unlabeled ligand, added in 20 μl volume. For test compounds, these are solubilized in 50% dimethylsulfoxide (DMSO) and added in 20.0 μl volume to a final incubation volume of 200 μl. Upon completion of binding, the content of each well is filtered off, using a Brandel® cell Harvester (Gaithersburg, Md.). The radioactivity trapped on the filter disk by the ligand-receptor complex is assessed by liquid scintillation counting in a Packard LS Counter, with an efficiency of 65% for tritium. The data are analyzed for IC50 values by the LUNDON-2 program for competition (LUNDON SOFTWARE, Ohio).

T1 sequence (Q00788 whole entry): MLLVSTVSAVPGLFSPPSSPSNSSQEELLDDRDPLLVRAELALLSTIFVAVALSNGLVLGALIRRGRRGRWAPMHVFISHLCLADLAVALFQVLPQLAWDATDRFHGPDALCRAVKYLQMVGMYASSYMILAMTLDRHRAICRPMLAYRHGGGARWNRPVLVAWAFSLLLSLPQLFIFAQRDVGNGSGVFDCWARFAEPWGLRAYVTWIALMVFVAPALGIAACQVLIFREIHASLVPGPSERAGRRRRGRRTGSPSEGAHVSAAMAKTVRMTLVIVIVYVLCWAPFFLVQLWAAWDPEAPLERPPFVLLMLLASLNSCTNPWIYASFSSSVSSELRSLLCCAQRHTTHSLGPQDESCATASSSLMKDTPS
T2 sequence (P30518 whole entry): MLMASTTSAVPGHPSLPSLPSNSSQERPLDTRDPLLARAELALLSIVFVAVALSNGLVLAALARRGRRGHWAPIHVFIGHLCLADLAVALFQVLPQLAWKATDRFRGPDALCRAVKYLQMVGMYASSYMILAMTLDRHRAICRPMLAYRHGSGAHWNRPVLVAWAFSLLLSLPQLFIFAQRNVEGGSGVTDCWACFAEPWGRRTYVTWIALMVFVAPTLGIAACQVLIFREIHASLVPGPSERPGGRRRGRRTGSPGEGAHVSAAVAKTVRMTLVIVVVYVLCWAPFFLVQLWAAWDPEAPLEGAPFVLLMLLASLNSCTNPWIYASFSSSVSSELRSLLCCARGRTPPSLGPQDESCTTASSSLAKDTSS

For the compound `Cc1ccc(F)cc1C(=O)Nc1ccc(C(=O)N2Cc3cccn3Cc3ccccc32)cn1` [Example 1, N-[5-(5H-Pyrrolo[2,1-c][1,4]benzodiazetin-10(11H)-ylcarbonyl)-2-pyridinyl]-5-fluoro-2-methylbenzamide], the IC50 (usually the concentration that inhibits the measured activity by half) in assay [1] is 4 nM; in assay [2] it was 5 nM.
